US20250170149A1, “NEUROACTIVE STEROIDS FOR TREATMENT OF GASTROINTESTINAL DISEASES OR CONDITIONS” (Sage Therapeutics, Inc., priority 2022, published 2025)
“Also recorded” adds a separate entry of the source. Like-named read-outs stand apart in the source and are kept apart here.

Key:
[1] = tested on: patients with major depressive disorder (MDD); conditions: cited from earlier work; for rates of gastrointestinal adverse reactions compared to placebo, words: 15 most commonly used antidepressants in MDD, Oliva V, et al. 2021; for gastrointestinal tolerability among antidepressants, words: Oliva V. et al. 2021 meta-analysis in MDD
[2] = tested on: participants with major depressive disorder (MDD); assay: Treatment-emergent adverse events (TEAEs) and serious AEs in study NCT04476030, safety set; assay type: in vivo, human; conditions: one patient, about 1 hour after zuranolone 50 mg on Day 7; resolved within 22 minutes
Procedure: A randomized, double-blind, parallel-group, active/placebo-controlled study (NCT04476030) in participants with major depressive disorder (MDD) was conducted. The study evaluated the efficacy and safety of zuranolone 50 mg co-initiated with standard-of-care (SOC) antidepressant therapies (ADTs) (zuranolone+ADT) vs placebo co-initiated with SOC ADT (placebo+ADT) in adults with MDD. Patients were randomized 1:1 to once-daily, blinded zuranolone +ADT or placebo+ADT for 14 days then continued open-label SOC ADT for 28 more days.
An AE could therefore be any unfavorable and unintended sign (including an abnormal laboratory finding), symptom or disease temporally associated with the use of a medicinal (investigational) product whether or not related to the medicinal (investigational) product. In clinical studies, an AE could include an undesirable medical condition occurring at any time, including baseline or washout periods, even if no study treatment had been administered.
A treatment emergent adverse event (TEAE) was defined as an AE with onset after the start of investigational product (IP), or any worsening of a pre-existing medical condition/AE with onset after the start of IP and throughout the study. The term IP included any Sage IP, a comparator, or a placebo administered in a clinical study. […]

SMILES | rates of gastrointestinal adverse reactions compared to placebo, words [1] | other results
Fc1ccc([C@@H]2CCNC[C@H]2COc2ccc3c(c2)OCO3)cc1 [paroxetine] | higher rates of gastrointestinal adverse reactions | 
CN(C)CC(c1ccc(O)cc1)C1(O)CCCCC1 (stereo not drawn) [desvenlafaxine] | higher rates of gastrointestinal adverse reactions | 
CNCCC(Oc1ccc(C(F)(F)F)cc1)c1ccccc1 (stereo not drawn) [fluoxetine] | higher rates of gastrointestinal adverse reactions | 
CN[C@H]1CC[C@@H](c2ccc(Cl)c(Cl)c2)c2ccccc21 [sertraline] | higher rates of gastrointestinal adverse reactions | gastrointestinal tolerability among antidepressants, words [1]: least tolerated antidepressants on the gastrointestinal tract; also recorded: least tolerated antidepressants on the GI tract; incidence of diarrhea, words ([1]; compared to other SSRIs and venlafaxine, Gartlehner G, et al. 2011): higher incidence of diarrhea
CC(NC(C)(C)C)C(=O)c1cccc(Cl)c1 (stereo not drawn) [bupropion] | higher rates of gastrointestinal adverse reactions | 
CCOc1ccccc1OC(c1ccccc1)C1CNCCO1 (stereo not drawn) [reboxetine] | higher rates of gastrointestinal adverse reactions | 
CCN(CC)C(=O)[C@@]1(c2ccccc2)C[C@H]1CN [levomilnacipran] | higher rates of gastrointestinal adverse reactions | 
CNCC[C@H](Oc1cccc2ccccc12)c1cccs1 [duloxetine] | higher rates of gastrointestinal adverse reactions | 
CN1CCN2c3ncccc3Cc3ccccc3C2C1 (stereo not drawn) [mirtazapine] | higher rates of gastrointestinal adverse reactions | 
COc1ccc(C(CN(C)C)C2(O)CCCCC2)cc1 (stereo not drawn) [venlafaxine] | higher rates of gastrointestinal adverse reactions | rates of nausea and vomiting, words ([1]; compared to SSRIs and duloxetine, Gartlehner G, et al. 2011): higher rates of nausea and vomiting
COCCCC/C(=N\OCCN)c1ccc(C(F)(F)F)cc1 [fluvoxamine] | higher rates of gastrointestinal adverse reactions | 
Cc1ccc(Sc2ccccc2N2CCNCC2)c(C)c1 [vortioxetine] | higher rates of gastrointestinal adverse reactions | 
CN(C)CCC[C@@]1(c2ccc(F)cc2)OCc2cc(C#N)ccc21 [escitalopram] | higher rates of gastrointestinal adverse reactions | gastrointestinal tolerability among antidepressants, words [1]: least tolerated antidepressants on the gastrointestinal tract; gastrointestinal tolerability among antidepressants, words ([1]; listed as Escitalopram): least tolerated antidepressants on the GI tract
COc1ccc2cccc(CCNC(C)=O)c2c1 [agomelatine] | higher rates of gastrointestinal adverse reactions | 
CN(C)CCCC1(c2ccc(F)cc2)OCc2cc(C#N)ccc21 (stereo not drawn) [citalopram] | higher rates of gastrointestinal adverse reactions | 
C[C@@]1(O)CC[C@H]2[C@H](CC[C@@H]3[C@@H]2CC[C@]2(C)[C@@H](C(=O)Cn4cc(C#N)cn4)CC[C@@H]32)C1 [zuranolone] |  | serious TEAE assessed as related to zuranolone by the investigator [2]: seizure-like phenomenon; also recorded: seizure-like phenomena
